Laboratory results as given in paper PMC10197885, “Anomanolide C suppresses tumor progression and metastasis by ubiquitinating GPX4-driven autophagy-dependent ferroptosis in triple negative breast cancer” (International Journal of Biological Sciences, 2023).

Molecular target: T1, GPX4 (Homo sapiens, UniProt P36969)
T1 sequence (P36969 28-197): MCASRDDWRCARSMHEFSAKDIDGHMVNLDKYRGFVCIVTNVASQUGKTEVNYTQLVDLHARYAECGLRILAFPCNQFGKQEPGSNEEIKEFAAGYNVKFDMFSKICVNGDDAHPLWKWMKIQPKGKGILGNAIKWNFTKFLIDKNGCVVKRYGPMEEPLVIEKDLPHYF
Assay: SPR (Biacore, GPX4 coupled to CM5 chip); supported by CETSA in MDA-MB-231 cells
Format: binding
Description: SPR (Biacore, GPX4 coupled to CM5 chip); supported by CETSA in MDA-MB-231 cells on GPX4 | AC binds to GPX4 protein as shown by surface plasmon resonance (SPR) measurements.

C[C@@]12CC([C@@]3(O)[C@H](O)C[C@H]4[C@@H]5C[C@H]6O[C@]67[C@@H](O)C=CC(=O)[C@]7(C)[C@H]5CC[C@@]43C)[C@@H](C1)OC(=O)[C@]2(C)O (stereo partly shown) [AC, Anomanolide C]
Kd: ~24 µM
